# Experimental data as given in PMC6277767, “Broad and Region-Specific Impacts of the Synthetic Cannabinoid CP 55,940 in Adolescent and Adult Female Mouse Brains” (Frontiers in Molecular Neuroscience, 2018).
# System: CD1 female mouse brain lipidome
# Assay: Brain-region lipid levels (HPLC/MS/MS lipidomics) 2 h after single i.p. 3 mg/kg CP 55,940 vs vehicle
# Format: in vivo
# Set-up: N-arachidonoyl phenylalanine level, Mean / N-stearoyl tryptophan level, Mean / N-stearoyl proline level, Mean / N-stearoyl leucine level, Mean / N-stearoyl phenylalanine level, Mean / N-stearoyl serine level, Mean / N-stearoyl methionine level, Mean: unit: moles per gram
# Method: The Bloomington Institutional Animal Care and Use Committee of Indiana University reviewed and approved the animal procedures. Female mice from the CD1 strain were utilized to match our study examining THC’s effects on the brain lipidome ([Leishman et al., 2018]). Mice were given a single i.p. injection of either 3 mg/kg CP or 1:1:18 cremophor:ethanol:saline vehicle (please refer to the section “3 mg/kg CP Is Relevant for Synthetic Cannabinoid Abuse and Has Stronger Effects on the Female Mouse Brain Lipidome During Adolescence” for a justification of dose and use of female mice). Three different age groups were given injections: PND 35 and PND 50 adolescents, and adult mice (PND 113). At least eight mice in each age group received CP and at least eight received vehicle. Matching the THC study time course ([Leishman et al., 2018]), mice were sacrificed via rapid decapitation 2 h after injection. Brains were immediately removed and flash-frozen in liquid nitrogen, and then stored at -80°C until dissections were performed. Brains were dissected on an ice-cold dissection plate into the following regions: STR, HIPP, CER, THAL, CTX, HYP, MID, and STEM. These abbreviations for these brain areas will be used exclusively when discussing the results generated by these specific dissections. Each dissected area was immediately placed in liquid nitrogen and then stored at -80°C until used for lipid extraction.
# Tissue extracts were performed as previously described ([Bradshaw et al., 2006]; [Stuart et al., 2013]; [Raboune et al., 2014]; [Leishman et al., 2016a],[b], [2017], [2018]). First, samples were shock frozen in liquid nitrogen, weighed, and transferred to a centrifuge tube. The mass of the largest sample was multiplied by 50 to determine how many milliliters of HPLC-grade methanol (Fisher, Fair Lawn, NJ, United States) to add. Then, samples were spiked with 500 pmol deuterium-labeled NAGly (d8NAGly; Cayman Chemical, Ann Arbor, MI, United States). Samples were placed on ice in darkness for 2 h then individually homogenized and centrifuged at 19,000 × g for 20 min at 20°C. Supernatants were diluted with HPLC water (purified in house) to make a solution of 75% water, 25% supernatant. Lipids were partially purified on C18 solid phase extraction columns (Agilent, Palo Alto, CA, United States). A series of four elutions with 1.5 mL of 60%, 75%, 85%, and 100% methanol were collected ([Stuart et al., 2013]; [Leishman et al., 2016a],[b], [2018]).
# As previously described ([Bradshaw et al., 2006]; [Tan et al., 2006]; [Smoum et al., 2010]; [Stuart et al., 2013]; [Tortoriello et al., 2013]; [Raboune et al., 2014]; [Leishman et al., 2016a],[b], [2017], [2018]), samples were analyzed using an Applied Biosystems API 3000 triple quadrupole mass spectrometer with electrospray ionization (Foster City, CA, United States). Using an Agilent XDB-C18 reversed phase analytical column and optimized mobile phase gradients, 20 μL from each elution were chromatographed. Two Shimadzu 10ADvp pumps (Columbia, MD, United States) provided the pressure for gradient elution. Mobile phase A: 20% methanol, 80% water (v/v) and 1 mM ammonium acetate (Sigma, St. Louis, MO, United States). Mobile phase B: 100% methanol, 1 mM ammonium acetate. Every method run began with 0% mobile phase B, reached 100% mobile phase B flowing at 0.2 mL/min, and gradually returned to 0% mobile phase B.
# This screening library will be referred to as the lipidome when discussing data from this study. HPLC/MS/MS data were analyzed using Analyst software (Applied Biosystems) ([Bradshaw et al., 2006]; [Tan et al., 2006]; [Stuart et al., 2013]; [Tortoriello et al., 2013]; [Raboune et al., 2014]; [Leishman et al., 2016a],[b], [2017], [2018]). Chromatograms (Supplementary Figure 3) were generated by determining the retention time of analytes from the analytical column with a [M-1] or [M+1] parent peak and a fragmentation peak corresponding to the programmed values. […]
# [1] = cerebellum, PND 35, 3 mg/kg CP 55,940
# [2] = cerebellum, PND35 WT female mice, 3mg/kg CP 55,940
# [3] = cortex, PND 50, 3 mg/kg CP 55,940
structure (smiles),measurement,setting,value
"CCCCCCC(C)(C)c1ccc([C@@H]2C[C@H](O)CC[C@H]2CCCO)c(O)c1 [CP 55,940]",N-oleoyl phenylalanine: Magnitude (x Veh level),[1],1.14 x Veh level
same,N-palmitoyl leucine: Direction (relative to Veh),[1],↑
same,N-palmitoyl leucine: Magnitude (x Veh level),[1],1.52 x Veh level
same,N-palmitoyl phenylalanine: Direction (relative to Veh),[1],↑
same,N-palmitoyl phenylalanine: Magnitude (x Veh level),[1],1.43 x Veh level
same,N-palmitoyl proline: Direction (relative to Veh),[1],↓
same,N-palmitoyl proline: Magnitude (x Veh level),[1],0.87 x Veh level
same,N-palmitoyl serine: Direction (relative to Veh),[1],↓
same,N-palmitoyl serine: Magnitude (x Veh level),[1],0.81 x Veh level
same,N-palmitoyl tyrosine: Direction (relative to Veh),[1],↑
same,N-palmitoyl tyrosine: Magnitude (x Veh level),[1],1.19 x Veh level
same,N-palmitoyl valine: Direction (relative to Veh),[1],↑
same,N-palmitoyl valine: Magnitude (x Veh level),[1],1.70 x Veh level
same,"2-arachidonoyl glycerol level, Mean",[2],2.68E-10
same,"2-linoleoyl glycerol level, Mean",[2],1.01E-10
same,"2-oleoyl glycerol level, Mean",[2],7.55E-10
same,"2-palmitoyl glycerol level, Mean",[2],3.01E-10
same,"6-ketoPGF1α level, Mean",[2],8.74E-12
same,"11-OH-THC level, Mean",[2],BDL
same,"11-nor-9-carboxyTHC level, Mean",[2],BDL
same,"Arachidonic acid level, Mean",[2],1.26E-09
same,"Cannabidiol level, Mean",[2],BDL
same,"Linoleic acid level, Mean",[2],4.27E-10
same,"N- stearoyl valine level, Mean",[2],PISSR
same,"N-arachidonoyl GABA level, Mean",[2],9.02E-12
same,"N-arachidonoyl alanine level, Mean",[2],5.29E-12
same,"N-arachidonoyl dopamine level, Mean",[2],BDL
same,"N-arachidonoyl ethanolamine level, Mean",[2],1.17E-11
same,"N-arachidonoyl glycine level, Mean",[2],2.55E-11
same,"N-arachidonoyl methionine level, Mean",[2],8.56E-13
same,"N-arachidonoyl phenylalanine level, Mean",[2],1.22E-12
same,"N-arachidonoyl proline level, Mean",[2],BDL
same,"N-arachidonoyl serine level, Mean",[2],5.34E-12
same,"N-arachidonoyl taurine level, Mean",[2],7.17E-11
same,"N-arachidonoyl tryptophan level, Mean",[2],PISSR
same,"N-arachidonoyl tyrosine level, Mean",[2],8.32E-13
same,"N-docosahexaenoyl GABA level, Mean",[2],2.27E-12
same,"N-docosahexaenoyl alanine level, Mean",[2],3.11E-12
same,"N-docosahexaenoyl ethanolamine level, Mean",[2],2.05E-11
same,"N-docosahexaenoyl glycine level, Mean",[2],1.34E-11
same,"N-docosahexaenoyl leucine level, Mean",[2],7.43E-13
same,"N-docosahexaenoyl methionine level, Mean",[2],5.43E-13
same,"N-docosahexaenoyl phenylalanine level, Mean",[2],1.05E-12
same,"N-docosahexaenoyl proline level, Mean",[2],BDL
same,"N-docosahexaenoyl serine level, Mean",[2],2.79E-11
same,"N-docosahexaenoyl tryptophan level, Mean",[2],PISSR
same,"N-docosahexaenoyl tyrosine level, Mean",[2],1.57E-12
same,"N-docosahexaenoyl valine level, Mean",[2],BDL
same,"N-linoleoyl GABA level, Mean",[2],7.16E-13
same,"N-linoleoyl alanine level, Mean",[2],1.26E-12
same,"N-linoleoyl ethanolamine level, Mean",[2],2.95E-11
same,"N-linoleoyl glycine level, Mean",[2],3.27E-12
same,"N-linoleoyl leucine level, Mean",[2],3.65E-13
same,"N-linoleoyl methionine level, Mean",[2],PISSR
same,"N-linoleoyl phenylalanine level, Mean",[2],2.56E-13
same,"N-linoleoyl proline level, Mean",[2],BDL
same,"N-linoleoyl serine level, Mean",[2],4.55E-11
same,"N-linoleoyl tryptophan level, Mean",[2],PISSR
same,"N-linoleoyl tyrosine level, Mean",[2],PISSR
same,"N-linoleoyl valine level, Mean",[2],BDL
same,"N-nervonoyl valine level, Mean",[2],BDL
same,"N-oleoyl GABA level, Mean",[2],3.82E-12
same,"N-oleoyl alanine level, Mean",[2],6.55E-12
same,"N-oleoyl dopamine level, Mean",[2],BDL
same,"N-oleoyl ethanolamine level, Mean",[2],7.98E-11
same,"N-oleoyl glycine level, Mean",[2],1.52E-11
same,"N-oleoyl leucine level, Mean",[2],1.49E-12
same,"N-oleoyl methionine level, Mean",[2],1.2E-12
same,"N-oleoyl phenylalanine level, Mean",[2],1.43E-12
same,"N-oleoyl proline level, Mean",[2],3.42E-13
same,"N-oleoyl serine level, Mean",[2],2.53E-10
same,"N-oleoyl tryptophan level, Mean",[2],1.48E-13
same,"N-oleoyl tyrosine level, Mean",[2],7.24E-13
same,"N-oleoyl valine level, Mean",[2],PISSR
same,"N-palmitoyl GABA level, Mean",[2],7.17E-12
same,"N-palmitoyl alanine level, Mean",[2],7.87E-12
same,"N-palmitoyl ethanolamine level, Mean",[2],3.88E-11
same,"N-palmitoyl glycine level, Mean",[2],2.65E-11
same,"N-palmitoyl leucine level, Mean",[2],2.75E-12
same,"N-palmitoyl methionine level, Mean",[2],1.86E-12
same,"N-palmitoyl phenylalanine level, Mean",[2],2.82E-12
same,"N-palmitoyl proline level, Mean",[2],7E-13
same,"N-palmitoyl serine level, Mean",[2],5.23E-11
same,"N-palmitoyl tryptophan level, Mean",[2],3.12E-13
same,"N-palmitoyl tyrosine level, Mean",[2],1.58E-12
same,"N-palmitoyl valine level, Mean",[2],1.73E-13
same,"N-stearoyl GABA level, Mean",[2],5.88E-12
same,"N-stearoyl alanine level, Mean",[2],1.31E-11
same,"N-stearoyl ethanolamine level, Mean",[2],1.11E-11
same,"N-stearoyl glycine level, Mean",[2],1.37E-11
same,"N-stearoyl leucine level, Mean",[2],9.56E-13
same,"N-stearoyl methionine level, Mean",[2],1.59E-12
same,"N-stearoyl phenylalanine level, Mean",[2],1.92E-12
same,"N-stearoyl proline level, Mean",[2],3.97E-13
same,"N-stearoyl serine level, Mean",[2],2.93E-11
same,"N-stearoyl tryptophan level, Mean",[2],6.79E-13
same,"N-stearoyl tyrosine level, Mean",[2],8.44E-14
same,"Oleic acid level, Mean",[2],1.03E-09
same,"PGE2 level, Mean",[2],4.01E-10
same,"PhosphoLEA level, Mean",[2],1.04E-11
same,"THC level, Mean",[2],BDL
same,2-linoleoyl glycerol Direction (relative to Veh),[3],↓
same,"2-oleoyl glycerol, Direction (relative to Veh)",[3],↓
